Earlier results as cited in patent publication US20260120816A1, “PREDICTION METHOD FOR PROTOPORPHYRINOGEN OXIDASE (PPO) INHIBITOR” (Pan Advanced Business Research, LLC, priority 2024, published 2026).

Details: control compound, Non Patent Literature 8

For `CC(=O)c1c(C)nn(C)c1O` [compound B, 1-(5-hydroxy-1,3-dimethyl-1H-pyrazol-4-yl)ethanone], the herbicidal activity is given as “no herbicidal activity at all”.
